According to patent US20210163489A1, “PYRAZOLOPYRIMIDINE DERIVATIVES AND THE COMPOSITIONS AND METHODS OF TREATMENT REGARDING THE SAME” (NysnoBio Ireland DAC, priority 2016, published 2021):

Target: T1, Parkin (Homo sapiens, UniProt O60260)
T1 construct: Enzyme 3: Parkin-His tagged 203 μM (10.5 mg/ml)
Assay: Parkin pUB auto-ubiquitinylation assay (TR-FRET)
Assay type: biochemical
Conditions: activation of pUb activated Parkin; read-out: Auto-ubiq EC50 (μM) [Example 3]
Description: A Parkin pUB Auto-ubiquitinylation Assay is used to evaluate a compound's potency to activate Parkin's ability to Auto-ubiquitinylate itself.
The principle of this assay is that the E3 Ligase Parkin catalyzes the transfer of Ubiquitin to target proteins, but also has the ability to auto-ubiquitinylate itself. The phospho-Ubiquition (pUb) added to the assay alters the Parkin to a state where small molecule activators can enable the Parkin to auto-ubiquitinylate though the E1-E2 cascade reaction. The use of a Eu cryptate Ubiquition and anti 6His-d2 that binds to the His tagged Parkin will give a signal when the Eu cryptate Ubiquition is auto-ubiquitinylate onto the Parkin which can be monitored by TR-FRET.
Similar to the Activity-based probe assay in Example 2, screening for activating compounds can be distinguished from the controls as follows:
100% activation signal=pUb activated Parkin+40 nM control activator in DMSO. 0% activation signal=pUb activated Parkin+DMSO only. Parkin activators can be identified by an increase of the 0% activation signal TR-FRET signal.
• Assay Plate: White 384 well plate (Corning 3572) • Enzyme 1: E1 (Ubiquitin-activating enzyme/UBE1 Boston Biochem E-305) • Enzyme 2: E2 (UBcH7/Ube2L3 Boston Biochem E2-640) • Enzyme 3: Parkin-His tagged 203 μM (10.5 mg/ml) • pUb: Phospho-Ubiquitin (S65) (Boston Biochem U-102) • Eu Cryptate Reagent: Ubiquitin Eu (CisBio 61UBIKLA) • DMSO: DMSO (Sigma-34869-2.5L) • Reaction Buffer: 50 mM HEPES, 50 mM NaCl, 1 mM MgCl2, 0.005% Tween 20, 0.1% • PF-127 (Fisher Scientific 50-310-494), pH 8.5 • Detection Buffer: 50 mM HEPES, 50 mM NaCl, 800 mM KF, 5 mM EDTA, 0.005% • Tween 20, 0.1% PF-127, pH 8.5 • Detection Reagent Z: 13.4 nM Anti-6His-d2 in detection buffer • d2 Reagent: Anti-6His-d2 (CisBio 61HISDLA)
Enzyme Reaction (15 min Pre-Incubation with Parkin, pUb and Activator Only) • Parkin: 196 nM • pUb: 196 nM • DMSO: 1% DMSO • E1: 5 nM • E2: 50 nM • Ubiquitin Eu: 8.8 nM • Reaction time: 120 minutes • Temperature: 22° C. • Total volume: 10 μl reaction
Take 10 μl of Enzyme Reaction above and add 10 μl detection Reagent Z under the following conditions:
Reaction time: 60 minutes
1) Load assay plate wells with 4.9 μl 400.0 nM Parkin, 400 nM pUb in reaction buffer by use of Eppendorf 12-channel pipette. 2) Deliver 0.1 μl 100× activator candidates in DMSO by use of Echo 555 compound dispenser. Highest 100× concentration=100 μm and then twofold dilutions. Add each compound and control in duplicate wells. 3) Spin 1000 rpm, 2 minutes, at room temp. 4) Incubate plate for 15 minutes at room temp. 5) Add 5 μl 10 nM E1, 100 nM E2, 17.6 nM Ubiquitin Eu and 2 mM ATP in Reaction Buffer by use of Eppendorf 12-channel pipette. 6) Spin 1000 rpm, 2 minutes, at room temp. 7) Incubate plate for 120 minutes at room temp. 8) Add 10 μl 13.4 nM anti his d2 in detection buffer by use of Eppendorf 12-channel pipette. 9) Spin 1000 rpm, 2 minutes, at room temp. 10) Incubate plate for 120 minutes at room temp. 11) Read plates on Perkin Elmer Envision instrument with the following parameters:
LANCE dual laser protocol loaded into the Envision® software
Top Mirror: LANCE/DELFIA Duel/Bias (Bar code 446) Emission Filter: APC 665 EM (Bar code 205) 2nd Emission Filter: Europium 615 EM (Bar code 203) Read […] (channel 1) and 615 nm (channel 2) wavelengths on Envision®
Data Analysis: The Data can be read in CSV files. There are two tables in those CSV files, which are the values of 655 nm (channel 1) and 615 nm (channel 2) wavelengths respectively. The data is converted to an HTRF Ratio=(Channel 1/Channel 2)*10,000
The average of all the 0 uM controls (DMSO only)=BKGD (Background—0% activation). Subtract BKGD from each HTRF Ratio value=HTRF-BKGD. The average of all the 100 uM control activator in DMSO controls=Max (100% activation). The following equation is then used to calculate % Activation for each well/candidate as follows: % Activation=(HTRF−BKGD/Max)*100.
XLFIT5 model 205 was applied for the data analysis. […]

T1 sequence (O60260 whole entry, other chains not shown): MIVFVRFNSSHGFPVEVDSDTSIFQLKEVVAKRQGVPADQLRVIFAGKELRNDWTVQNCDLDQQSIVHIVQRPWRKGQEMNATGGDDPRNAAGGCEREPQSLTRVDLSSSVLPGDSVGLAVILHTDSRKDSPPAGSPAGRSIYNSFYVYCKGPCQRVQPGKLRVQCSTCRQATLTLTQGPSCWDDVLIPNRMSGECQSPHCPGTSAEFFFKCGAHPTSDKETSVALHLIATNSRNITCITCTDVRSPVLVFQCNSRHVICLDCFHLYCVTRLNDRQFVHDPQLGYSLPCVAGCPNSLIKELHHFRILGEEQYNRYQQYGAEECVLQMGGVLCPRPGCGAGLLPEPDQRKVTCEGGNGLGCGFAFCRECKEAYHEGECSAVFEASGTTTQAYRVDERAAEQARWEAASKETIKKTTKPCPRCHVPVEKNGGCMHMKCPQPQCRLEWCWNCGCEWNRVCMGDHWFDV

SMILES | EC50 [µM]
Cc1cc(S)n2ncc(-c3cccc(N(C)C)c3)c2n1 [UU] | > 40
Cc1cc(S)n2ncc(-c3cnn(C)c3)c2n1 [VV] | > 40
Cc1nn2c(S)c3c(nc2c1-c1ccccc1)CCOC3 [WW] | > 40
Cc1nn2c(S)c3c(nc2c1-c1ccccc1)COC3 [XX] | > 40
CNc1c2c(nc3c(-c4ccccc4)c(C)nn13)CCN(C)C2 [YY] | > 40
Cc1nn2c(S)c(C)c(Cc3ccccc3)nc2c1-c1ccccc1 [ZZ] | > 40

Further lines, results first:

EC50 [µM] | SMILES
> 40 | Cc1cc(C)c2c(n1)nn1c(S)c(Cc3ccccc3)c(C)nc21 [RR]
> 40 | COc1ccc(-c2cnn3c(S)cc(C)nc23)cc1 [SS]
> 40 | Cc1cc2nc(C)c(Cc3ccccc3)c(S)n2n1 [S]
> 40 | Cc1ccc(-c2cnn3c(S)cc(C)nc23)cc1 [TT]
> 40 | Cc1nc2c(-c3ccccc3)c(C)nn2c(O)c1Cc1ccccc1 [T]
